{"source": "patent US6696533B1", "about": "“Stable N-oxly radical assisted emulsion polymerization under pressure” (BASF Aktiengesellschaft, priority 1997, dated 2004)", "source_text": "The monomers and polymerization auxiliaries used in the examples below were used without further purification, in other words as acquired.", "data": [{"compound": "CC1(C)CCCC(C)(C)N1O", "note": "[TEMPO, 2,2,6,6-tetramethyl-1-oxyl-piperidine]", "values": [{"measurement": "molal solubility in water", "value": "6.4e-05", "unit": "mol/kg"}]}]}
